The target in one test is ERα (Homo sapiens (Human), UniProt P03372). Description: Degradation effect of compounds on ERα in MCF-7 and CAMA-1 cells (automated western blot, 24 h). It counts as cell-based. Particulars: ERα degradation in MCF-7 cells; for DC50: 24 hours; for Dmax at 0.1 µM: MCF7, @100 nM. As for the experimental part:
2. Degradation Effect of Compounds on ERα in MCF-7 and CAMA-1 Cells
Breast cancer cells MCF-7 and CAMA-1 were purchased from ATCC, the cell media were all EMEM+10% FBS, and the cells were cultured in an incubator at 37° C. under 5% CO2. On the first day, the cells in an exponential phase were collected. With a 10% css-FBS phenol red-free medium, the cell suspension was adjusted to a corresponding concentration, plated at 300000 cells/well and incubated for 3 days. After 3 days, the liquid in the well was aspirated, and a 10% css-FBS phenol red-free medium containing the compound to be tested was added and cultured in an incubator at 37° C. under 5% CO2. After 24 hours, 60 μl of RIPA lysis solution (containing 1× protease inhibitor cocktail) was added to each well, lysed on ice for 15 minutes, and then centrifuged at 4° C. for 10 minutes at 12000 g. The supernatant protein samples were collected, and protein quantification was performed by a BCA method. ERα was detected using fully automatic protein expression quantitative analysis, which involved diluting the protein to be tested to 1.5 mg/mL. 4 μL of the diluted protein samples were added to 1 μL of 5×Master Mix (provided in the kit), and the prepared samples were denatured at 95° C. for 5 min and placed on ice for use. Antibody Diluent II (provided in the kit) was used to dilute the primary antibody, in which the dilution ratios of ERα (CST, 13258S) and β-actin (CST, 3700) antibodies were 1:40 and 1:500, respectively, the secondary antibody was a 1:1 mixture of goat anti-mouse and goat anti-rabbit secondary antibodies, and the chromogenic solution was a 1:1 mixture of Lumino-S and Peroxide. The prepared reagents were successively added to an assay plate according to instructions of the kit and detected on an instrument. Western blot band processing was performed using “Compass for SW”, a fully automatic protein expression quantitative analysis software, in which western blot bands were automatically simulated based on signal values. The proportion of ERα relative to the solvent control at different drug concentrations according to equation (1), wherein Acompound was the relative peak area of ERα in the treated group, and Asolvent was the relative peak area of ERα in the solvent control group.
ERα%=Acompound/Asolvent×100 equation (1)
DC50 calculation: Calculation was performed according to equation (1), and using Graphpad Prism 8.0 software, the compound concentration DC50 values at which the degradation rate of ERα was 50% were calculated using a non-linear four-parameter function (Non linear regression (curve fit)) (Table 1).

The test system of a further test is MCF-7 cells. Description: Inhibitory effect of compounds on the proliferation of MCF-7 cells (CellTiter-Glo, 7 days). Particulars: Homo sapiens, MCF7, 168 h, 7 days incubation. It counts as cell-based. The protocol: 1. Inhibitory Effect of Compounds on the Proliferation of MCF-7 Cells
Breast cancer cells MCF-7 were purchased from ATCC, the cell media were all EMEM+10% FBS, and the cells were cultured in an incubator at 37° C. under 5% CO2. On the first day, cells in the exponential growth phase were collected and cultured in a 10% css-FBS phenol red-free medium without cytokines for 3 days. After the completion of culture, a 10% css-FBS phenol red-free medium was used to adjust the cell suspension to the corresponding concentration and same was plated to 1000 cells/well. P-estradiol and compounds of different concentrations were added. A plate without adding any reagent was taken and used as Day0 with a reading value RLUday0, determined with CellTiter-Glo kit, placed in an incubator and incubated for 7 days. After the incubation was completed, according to operation instructions for a CellTiter-Glo kit (Promega, G7573), 50 μL of CellTiter-Glo solutions, which were pre-melted and equilibrated to room temperature, were added to each well, and the mixtures were uniformly mixed for 2 min using a microplate shaker. The plate was placed at room temperature for 10 min, and then […] signal values were measured using a microplate reader (PHERAstar FSX). Chemiluminescence readouts were processed using origin9.2 software and the DoseResp function was used to calculate the GIsovalue for the inhibitory activity of compounds on the proliferation of cells (Table 1). The results were processed according to equation (1), the inhibition rate of the compound at different concentrations was calculated, and the GI50 value of the compound with a proliferation rate of 50% was calculated using origin9.2 software, wherein RLUcompound was the readout of the treated group, and RLUcontrol was the average value of the solvent control group.
Growth %=(RLUcompound−RLUday0)/(RLUcontrol−RLUday0)×100 equation (1)

The test system of the next test is ER. Particulars: clinical samples; cited from earlier work.

Molecules are shown by their SMILES.

ERα, sequence (P03372 whole entry): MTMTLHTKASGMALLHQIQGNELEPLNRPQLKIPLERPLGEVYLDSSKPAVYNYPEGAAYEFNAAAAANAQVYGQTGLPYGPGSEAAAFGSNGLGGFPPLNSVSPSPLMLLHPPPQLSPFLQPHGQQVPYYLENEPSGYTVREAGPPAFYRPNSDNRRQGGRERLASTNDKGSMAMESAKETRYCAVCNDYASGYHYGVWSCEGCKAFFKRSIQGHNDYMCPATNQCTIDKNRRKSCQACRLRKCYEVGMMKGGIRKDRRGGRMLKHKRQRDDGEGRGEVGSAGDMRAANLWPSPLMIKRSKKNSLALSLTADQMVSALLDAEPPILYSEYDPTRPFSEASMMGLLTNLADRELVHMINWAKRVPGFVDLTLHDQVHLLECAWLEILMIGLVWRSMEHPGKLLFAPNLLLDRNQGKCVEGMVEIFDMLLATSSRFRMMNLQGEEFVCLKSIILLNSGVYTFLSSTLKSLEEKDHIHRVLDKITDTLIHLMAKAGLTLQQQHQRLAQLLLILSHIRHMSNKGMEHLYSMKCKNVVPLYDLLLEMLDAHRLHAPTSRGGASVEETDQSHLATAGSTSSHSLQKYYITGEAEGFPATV

On ERα, `CC1Cc2c([nH]c3cc4c(cc23)CC4)C(c2c(F)cc(NC3CN(CCCF)C3)cc2F)N1CC(F)(F)F` (single isomer, unassigned) [Compound 22-1, N-(3,5-difluoro-4-(3-methyl-2-(2,2,2-trifluoroethyl)-2,3,4,6,7,9-hexahydro-1H-cyclobuta[f]pyrido[3,4-b]indol-1-yl)phenyl)-1-(3-fluoropropyl)azetidin-3-amine] displayed a DC50 of 1.13 nM and a Dmax at 0.1 µM of 69%.

For `Cc1ccc2c3c([nH]c2c1)[C@@H](c1c(F)cc(N[C@H]2CCN(CCCF)C2)cc1F)N(CC(F)(F)CO)[C@H](C)C3` [Compound 8, 3-((1R,3R)-1-(2,6-difluoro-4-(((S)-1-(3-fluoropropyl)pyrrolidin-3-yl)amino)phenyl)-3,7-dimethyl-1,3,4,9-tetrahydro-2H-pyrido[3,4-b]indol-2-yl)-2,2-difluoropropan-1-ol], on ERα, half-maximal degradation (DC50) was put at 0.594 nM and the Dmax at 0.1 µM turned out to be 70%.

In the case of `C[C@@H]1Cc2c([nH]c3cccc(F)c23)[C@@H](c2c(F)cc(N[C@H]3CCN(CCCF)C3)cc2F)N1CC(F)(F)CO` [Compound 15, 3-((1R,3R)-1-(2,6-difluoro-4-(((S)-1-(3-fluoropropyl)pyrrolidin-3-yl)amino)phenyl)-5-fluoro-3-methyl-1,3,4,9-tetrahydro-2H-pyrido[3,4-b]indol-2-yl)-2,2-difluoropropan-1-ol], at ERα, half-maximal degradation (DC50) was put at 0.447 nM and the Dmax at 0.1 µM was 72%.

Take `C[C@@H]1Cc2c([nH]c3cc(F)ccc23)[C@@H](c2c(F)cc(N[C@H]3CCN(CCCF)C3)cc2F)N1CC(F)(F)CO` [Compound 31, 3-((1R,3R)-1-(2,6-difluoro-4-(((S)-1-(3-fluoropropyl)pyrrolidin-3-yl)amino)phenyl)-7-fluoro-3-methyl-1,3,4,9-tetrahydro-2H-pyrido[3,4-b]indol-2-yl)-2,2-difluoropropan-1-ol]: on ERα, the DC50 was determined as 0.244 nM and the Dmax at 0.1 µM was found to be 77%.

As for `C[C@@H]1Cc2c([nH]c3cc(F)c(F)cc23)[C@@H](c2c(F)cc(N[C@H]3CCN(CCCF)C3)cc2F)N1CC(F)(F)CO` [Compound 35, 3-((1R,3R)-1-(2,6-difluoro-4-(((S)-1-(3-fluoropropyl)pyrrolidin-3-yl)amino)phenyl)-6,7-difluoro-3-methyl-1,3,4,9-tetrahydro-2H-pyrido[3,4-b]indol-2-yl)-2,2-difluoropropan-1-ol], the GI50 in the test on MCF-7 cells is under 0.026 nM. On ERα, this compound yielded a DC50 of 0.269 nM and a Dmax at 0.1 µM of 68%.

Regarding `C[C@@H]1Cc2c([nH]c3ccc(F)cc23)[C@@H](c2c(F)cc(N[C@H]3CCN(CCCF)C3)cc2F)N1CC(F)(F)CF` [Compound 38, (S)—N-(3,5-difluoro-4-((1R,3R)-6-fluoro-3-methyl-2-(2,2,3-trifluoropropyl)-2,3,4,9-tetrahydro-1H-pyrido[3,4-b]indol-1-yl)phenyl)-1-(3-fluoropropyl)pyrrolidin-3-amine], the GI50 in the test with MCF-7 cells is under 0.026 nM. On ERα, this compound returned a DC50 of 1.7 nM and a Dmax at 0.1 µM of 72%.

`Cc1ccc2[nH]c3c(c2c1)C[C@@H](C)N(CC(F)(F)CO)[C@@H]3c1c(F)cc(N[C@H]2CCN(CCCF)C2)cc1F` [Compound 49, 3-((1R,3R)-1-(2,6-difluoro-4-(((S)-1-(3-fluoropropyl)pyrrolidin-3-yl)amino)phenyl)-3,6-dimethyl-1,3,4,9-tetrahydro-2H-pyrido[3,4-b]indol-2-yl)-2,2-difluoropropan-1-ol] had a GI50 with MCF-7 cells of under 0.026 nM. At ERα, the DC50 was found to be 0.726 nM and the Dmax at 0.1 µM turned out to be 70%.

On ERα, `C#Cc1ccc2c3c([nH]c2c1)[C@@H](c1c(F)cc(NC2CN(CCCF)C2)cc1F)N(CC(F)(F)F)[C@H](C)C3` [Compound 51, N-(4-((1R,3R)-7-ethynyl-3-methyl-2-(2,2,2-trifluoroethyl)-2,3,4,9-tetrahydro-1H-pyrido[3,4-b]indol-1-yl)-3,5-difluorophenyl)-1-(3-fluoropropyl)azetidin-3-amine] gave a DC50 of 0.712 nM and a Dmax at 0.1 µM of 68%.

As to `C[C@]12CC[C@@H]3c4ccc(O)cc4C[C@@H](CCCCCCCCC[S+]([O-])CCCC(F)(F)C(F)(F)F)[C@H]3[C@@H]1CC[C@@H]2O` (some centres unmarked) [Fulvestrant], in the test with ER, the ER degradation entry is “approximately 50%”.

The values above are taken from patent US20240208932A1, “ARYLAMINO DERIVATIVE ESTROGEN RECEPTOR MODULATOR AND USE THEREOF” (XIZANG HAISCO PHARMACEUTICAL CO., LTD., priority 2021, published 2024).
